Data reported in US9315487B2, “Tetrahydroquinoline derivatives useful as bromodomain inhibitors” (GlaxoSmithKline LLC, priority 2011, dated 2016).
Values joined by “and” are separate entries in the source; they are usually repeats but may differ in a detail not shown here. Identical values can stand only once.

Legend:
Bromodomain BRD2 = target: T1, Bromodomain BRD2 (Homo sapiens, UniProt P25440); assay: Time Resolved Fluorescence Resonance Energy Transfer (TR-FRET) assay, BRD2; format: binding; details: BRD2 (1-473), acetylated histone peptide
T1 construct: BRD2 (1-473); made in house; host or cells: E. coli (pET15b vector)
T1 sequence (P25440 1-473): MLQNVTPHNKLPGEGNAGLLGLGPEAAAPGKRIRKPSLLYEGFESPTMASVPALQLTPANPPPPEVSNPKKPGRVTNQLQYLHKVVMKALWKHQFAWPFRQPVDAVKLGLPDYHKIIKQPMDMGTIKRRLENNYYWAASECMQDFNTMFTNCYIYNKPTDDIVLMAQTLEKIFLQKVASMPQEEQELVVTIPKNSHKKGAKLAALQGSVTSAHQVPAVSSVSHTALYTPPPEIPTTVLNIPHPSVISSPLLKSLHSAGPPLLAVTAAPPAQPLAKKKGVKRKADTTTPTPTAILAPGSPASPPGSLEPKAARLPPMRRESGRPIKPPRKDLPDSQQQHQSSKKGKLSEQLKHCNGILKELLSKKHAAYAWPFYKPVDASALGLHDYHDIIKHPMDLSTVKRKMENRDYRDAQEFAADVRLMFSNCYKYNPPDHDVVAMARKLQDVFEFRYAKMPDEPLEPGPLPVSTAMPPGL
Procedure: (§1) Time Resolved Fluorescence Resonance […] Transfer (TR-FRET) Assay
(§2) The binding of the compounds of formula (I) to Bromodomains BRD2, BRD3 and BRD4 was assessed using a time resolved fluorescent resonance energy transfer binding assay, that measures the binding of an acetylated histone peptide to the bromodomain protein.
(§3) The bromodomain protein, histone peptide and a variable concentration of test compound are incubated together to reach thermodynamic equilibrium.
(§4) The protected peptide was assembled on a solid-phase synthesiser using preloaded Wang resin and utilising standard Fmoc synthesis protocols. The C-terminal lysine was protected by a hyper acid-labile group allowing for its selective removal at the end of the assembly and attachment of the biotin. The crude peptide was obtained after cleavage from the resin with a mixture of trifluoroacetic acid (TFA), triisopropylsilane and water (95:2.5:2.5) for 3 h at room temperature and was then purified using a C18 reverse-phase column utilising a 0.1% TFA-buffered water/acetonitrile gradient. The resulting fractions were analysed and fractions which were >95% pure by analytical HPLC and giving the correct mw (by MALDiTOF mass spectroscopy) were pooled and freeze dried. The final material was analysed by HPLC to confirm purity.
(§5) Recombinant Human Bromodomains (BRD2 (1-473), BRD3 (1-435) and BRD4 (1-477)) were expressed in E. coli cells (in pET15b vector) with a six-His tag at the N-terminal. The His-tagged Bromodomain was extracted from E. coli cells using sonication and purified using a nickel sepharose 6FF column, the proteins were washed and then eluted with 50 mM Tris-Hcl pH8.0. 300 mM NaCl, 1 mM β-mercaptoethanol and 20 mM Imidazole. Further purification was performed by affinity chromatography on a HisTRAP HP column, eluting with a linear 0-500 mM […] gradient, over 20 column volumes. Final purification was completed by Superdex 200 prep grade size exclusion column. Purified protein was stored at −80 C in 20 mM HEPES pH 7.5 and 100 mM NaCl. Protein identity was confirmed by peptide mass fingerprinting and predicted molecular weight confirmed by mass spectrometry.
(§6) Protocol for Bromodomain BRD2, 3 and 4 Assays:
(§7) All assay components were dissolved in buffer composition of 50 mM HEPES pH7.4, 50 mM NaCl and 0.5 mM CHAPS. The final concentration of bromodomain proteins were 100 nM and the histone peptide was 300 nM, these components are premixed and allowed to equilibrate for 1 hour in the dark. 8 μl of this reaction mixture was added to all wells containing 50 nl of various concentrations of test compound or DMSO vehicle (0.5% final) in Greiner 384 well black low volume microtitre plates and incubated in dark for 60 mins at room temperature. […] detection mixture containing anti-6his XL665 labeled antibody and streptavidin labeled with europium cryptate was added to all wells and a further dark incubation of at least 30 mins was performed. Plates were then read on the Envision platereader, (λex=317 nm, donor λEM=615 nm; acceptor λEM=665 nm; Dichroic LANCE dual). Time resolved fluorescent intensity measurements were made at both emission wavelengths and the ratio of acceptor/donor was calculated and used for data analysis. All data was normalized to the mean of 16 high and 16 low control wells on each plate. A four parameter curve fit of the following form was then applied: y=a+((b−a)/(1+(10^x/10^c)^d)
(§8) Where ‘a’ is the minimum, ‘b’ is the Hill slope, ‘c’ is the pIC50 and ‘d’ is the maximum.

Bromodomain BRD4 = target: T2, Bromodomain BRD4 (Homo sapiens, UniProt O60885); assay: Time Resolved Fluorescence Resonance Energy Transfer (TR-FRET) assay, BRD4; format: binding; details: BRD4 (1-477), acetylated histone peptide
T2 construct: BRD4 (1-477); made in house; host or cells: E. coli (pET15b vector)
Procedure: as §1, §2, §3, §4, §5, §6, §7, §8

[1] = system: LPS induced IL-6 secretion from whole blood; assay: Measurement of LPS induced IL-6 secretion from whole blood; format: cell-based; details: 24 h, LPS 200 ng/ml, IL-6 by immunoassay
Procedure: Measurement of LPS Induced IL-6 Secretion from Whole Blood
Activation of monocytic cells by agonists of toll-like receptors such as bacterial lipopolysaccharide (LPS) results in production of key inflammatory mediators including IL-6. Such pathways are widely considered to be central to the pathophysiology of a range of auto-immune and inflammatory disorders.
Compounds to be tested are diluted to give a range of appropriate concentrations of which 1 μl of the diluted stocks is added to a 96 well plate. Following addition of whole blood (130 μl) the plates are incubated at 37 degrees (5% CO2) for 30 min before the addition of 10 μl of 2.8 ug/ml LPS, diluted in complete RPMI 1640 (final concentration=200 ng/ml), to give a total volume of 140 ul per well. After further incubation for 24 hours at 37 degrees, 140 μl of PBS are added to each well. The plates are sealed, shaken for 10 minutes and then centrifuged (2500 rpm×10 min). 100 μl of the supernatant are removed and IL-6 levels assayed by immunoassay (typically by MesoScale Discovery technology) either immediately or following storage at −20 degrees. Concentration response curves for each compound was generated from the data and an IC50 value was calculated

Bromodomain BRD3 = target: T3, Bromodomain BRD3 (Homo sapiens, UniProt Q15059); assay: Time Resolved Fluorescence Resonance Energy Transfer (TR-FRET) assay, BRD3; format: binding; details: BRD3 (1-435), acetylated histone peptide
T3 construct: BRD3 (1-435); made in house; host or cells: E. coli (pET15b vector)
T3 sequence (Q15059 1-435): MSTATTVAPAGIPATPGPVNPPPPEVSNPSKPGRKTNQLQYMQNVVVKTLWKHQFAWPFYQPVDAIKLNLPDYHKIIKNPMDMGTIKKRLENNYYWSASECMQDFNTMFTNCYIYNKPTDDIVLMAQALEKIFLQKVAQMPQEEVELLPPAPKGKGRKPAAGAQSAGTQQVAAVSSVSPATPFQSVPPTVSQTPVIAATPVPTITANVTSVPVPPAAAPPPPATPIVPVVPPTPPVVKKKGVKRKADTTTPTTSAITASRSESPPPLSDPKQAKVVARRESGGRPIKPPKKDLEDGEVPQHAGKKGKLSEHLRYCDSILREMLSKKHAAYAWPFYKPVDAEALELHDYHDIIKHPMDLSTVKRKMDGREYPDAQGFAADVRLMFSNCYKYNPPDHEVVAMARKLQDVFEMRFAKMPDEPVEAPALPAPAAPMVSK
Procedure: as §1, §2, §3, §4, §5, §6, §7, §8

[2] = target: T4, Bromodomain BRD2, BRD3 and BRD4; assay: Fluorescence Anisotropy Binding Assay; set-up: species or system Human; details: tested in one or more of the BRD2, BRD3, BRD4 fluorescence anisotropy assays
T4 construct: fused on or other part: six-His tag at the N-terminus
Text: Fluorescence Anisotropy Binding Assay
The binding of the compounds of formula (I) to Bromodomain BRD2, BRD3 and BRD4 may be assessed using a Fluorescence Anisotropy Binding Assay.
All data was normalized to the mean of 16 high and 16 low control wells on each plate. A four parameter curve fit of the following form was then applied: y=a+((b−a)/(1+(10^x/10^c)^d)
Where ‘a’ is the minimum, ‘b’ is the Hill slope, ‘c’ is the pIC50 and ‘d’ or is the maximum.
Recombinant Human Bromodomains (Bromodomain BRD2 (1-473), Bromodomain BRD3 (1-435) and Bromodomain BRD4 (1-477)) were expressed in E. coli cells (in pET15b vector) with a six-His tag at the N-terminal. The His-tagged Bromodomain was extracted from E. coli cells using 0.1 mg/ml lysozyme and sonication. […]
All components were dissolved in buffer composition of 50 mM HEPES pH7.4, 150 mm NaCl and 0.5 mM CHAPS with final concentrations of Bromodomain 2, 75 nM, fluorescent ligand 5 nM. […] Fluorescence anisotropy was read in Envision (λex=485 nm, λEM=530 nm; Dichroic −505 nM). […]
All components were dissolved in buffer of composition 50 mM HEPES pH7.4, 150 mm NaCl and 0.5 mM CHAPS with final concentrations of Bromodomains 3 75 nM, fluorescent ligand 5 nM. […] Fluorescence anisotropy was read in Envision (λex=485 nm, λEM=530 nm; Dichroic −505 nM). […]

C33A cells = assay: Measurement of HPV infected cells: C33A negative control cell viability; format: cell-based; details: 2 days, [ATP] assay
Procedure: (§9) Measurement of HPV Infected Cells The […] cell clone #20850, derived from a low grade cervical […] (Stanley et al., Int. J. Cancer. V. 43. p. 672-676. 1989), carries episomal HPV16 genomes, maintained at approximately 100 copies per cell. Epithelial cell line C33A, which is not infected with any HPV strain was used as a negative control cell to assess non-specific cytotoxicity. […] and C33A cells were cultured with the compound of Example 2 for 2 days and viable cell content monitored by assaying [ATP] at end of this period. Data was normalised to DMSO control treated cells on day 2.

[3] = as above; format: cell-based; details: human, 3 μM, normalised to DMSO control, read-out: Viability at the maximal tested concentration
Procedure: as §9

[4] = system: W12 cells (episomal HPV16 genomes); assay: Measurement of HPV infected cells: W12 cell viability; format: cell-based; details: Human papillomavirus 16, 48 h, 2 days
Procedure: as §9

Row | IC50 (Bromodomain BRD2) | IC50 (Bromodomain BRD4) | IC50 [1] [µM] | IC50 (Bromodomain BRD3) | pIC50 [2] | SMILES | effect on C33A negative control cells (viability) (C33A cells) | viability at 2 days, 3 µM [3] [%] | viability at 3 µM ([4]; 3 μM, normalised to DMSO control, read-out: Viability at the maximal tested concentration) [%] | IC50 ([4]; [ATP] assay, n=4, read-out: mean pIC50 value, W12 cell viability (converted)) [µM]
1 | 0.0631 to 0.316 µM | 0.0631 to 0.316 µM | 0.126 to 1 | 0.0631 to 0.316 µM |  | COCCn1cc(-c2ccc3c(c2)[C@H](Nc2ccc(C)cn2)C[C@H](C)N3C(C)=O)cn1 [Example 6, 1-((2S,4R)-6-(1-(2-methoxyethyl)-1H-pyrazol-4-yl)-2-methyl-4-((5-methylpyridin-2-yl)amino)-3,4-dihydroquinolin-1(2H)-yl)ethanone] |  |  |  | 
2 | 0.0631 to 0.316 µM | 0.0631 to 0.316 µM | 0.126 to 1 | 0.0631 to 0.316 µM |  | COCCn1cc(-c2ccc3c(c2)[C@H](Nc2ccc(C#N)cn2)C[C@H](C)N3C(C)=O)nn1 [Example 3, 6-(((2S,4R)-1-acetyl-6-(1-(2-methoxyethyl)-1H-1,2,3-triazol-4-yl)-2-methyl-1,2,3,4-tetrahydroquinolin-4-yl)amino)nicotinonitrile] |  |  |  | 
3 | 0.0631 to 0.316 µM | 0.0631 to 0.316 µM | 0.126 to 1 | 0.0631 to 0.316 µM |  | COCCn1ncc(-c2ccc3c(c2)[C@H](Nc2ccc(C#N)cn2)C[C@H](C)N3C(C)=O)n1 [Example 4, 6-(((2S,4R)-1-acetyl-6-(2-(2-methoxyethyl)-2H-1,2,3-triazol-4-yl)-2-methyl-1,2,3,4-tetrahydroquinolin-4-yl)amino)nicotinonitrile] |  |  |  | 
4 | 0.0631 to 0.316 µM | 0.0631 to 0.316 µM | 0.126 to 1 | 0.0631 to 0.316 µM |  | COCCn1cc(-c2ccc3c(c2)[C@H](Nc2ccc(Cl)cn2)C[C@H](C)N3C(C)=O)cn1 [Example 5, 1-((2S,4R)-4-((5-chloropyridin-2-yl)amino)-6-(1-(2-methoxyethyl)-1H-pyrazol-4-yl)-2-methyl-3,4-dihydroquinolin-1(2H)-yl)ethanone] |  |  |  | 

More lines, now with the values behind:

Row | SMILES | IC50 (Bromodomain BRD2) | IC50 (Bromodomain BRD4) | IC50 [1] [µM] | IC50 (Bromodomain BRD3) | pIC50 [2] | effect on C33A negative control cells (viability) (C33A cells) | viability at 2 days, 3 µM [3] [%] | viability at 3 µM ([4]; 3 μM, normalised to DMSO control, read-out: Viability at the maximal tested concentration) [%] | IC50 ([4]; [ATP] assay, n=4, read-out: mean pIC50 value, W12 cell viability (converted)) [µM]
5 | COCCn1cc(-c2ccc3c(c2)[C@H](Nc2cnc(C)cn2)C[C@H](C)N3C(C)=O)cn1 [Example 8, 1-((2S,4R)-6-(1-(2-methoxyethyl)-1H-pyrazol-4-yl)-2-methyl-4-((5-methylpyrazin-2-yl)amino)-3,4-dihydroquinolin-1(2H)-yl)ethanone] | 0.0631 to 0.316 µM | 0.0631 to 0.316 µM | 0.126 to 1 | 0.0631 to 0.316 µM |  |  |  |  | 
6 | COCCn1cc(-c2ccc3c(c2)[C@H](NC(=O)OC(C)C)C[C@H](C)N3C(C)=O)cn1 [Example 1, 1-methylethyl ((2S,4R)-1-acetyl-2-methyl-6-{1-[2-(methyloxy)ethyl]-1H-pyrazol-4-yl}-1,2,3,4-tetrahydro-4-quinolinyl)carbamate] |  |  | 0.126 to 1 |  | ≥ 6.5 |  |  |  | 
7 | COCCn1cc(-c2ccc3c(c2)[C@H](Nc2ccc(C#N)cn2)C[C@H](C)N3C(C)=O)cn1 [Example 2, 6-(((2S,4R)-1-acetyl-6-(1-(2-methoxyethyl)-1H-pyrazol-4-yl)-2-methyl-1,2,3,4-tetrahydroquinolin-4-yl)amino)nicotinonitrile] | 0.0631 to 0.126 µM and 0.0631 to 0.316 µM | 0.0631 to 0.126 µM and 0.0631 to 0.316 µM | 0.2 | 0.0631 to 0.126 µM and 0.0631 to 0.316 µM |  | limited effect | 73.5 | 34.8 | 0.0813
8 | COCCn1cc(-c2ccc3c(c2)[C@H](Nc2cccc(Cl)c2)C[C@H](C)N3C(C)=O)cn1 [Example 7, 1-((2S,4R)-4-((3-chlorophenyl)amino)-6-(1-(2-methoxyethyl)-1H-pyrazol-4-yl)-2-methyl-3,4-dihydroquinolin-1(2H)-yl)ethanone] | 0.0631 to 0.316 µM | 0.0631 to 0.316 µM | 0.126 to 1 | 0.0631 to 0.316 µM |  |  |  |  | 
